In turn, `Nc1c2c(nc3cc(F)ccc13)CCCC2O` (stereo not drawn) yielded a melting point of 203 to 206 °C. As to `CCc1ccc(N2CCN(c3c(C)c4c(c(OC)c3C)OC(C)(C)C4)CC2)cc1`, the melting point is 157 to 160 °C. `CC(=O)NC[C@H]1CN(c2ccc(N3CCC(=C(C#N)Cc4ccccc4)CC3)c(F)c2)C(=O)O1`: the melting point was in the range of 98 to 100 °C. The compound `CCOC(=O)c1cnn2c1c(Cl)nc1ccccc12` came in with a melting point of 105 to 106 °C. Then `Cc1cc(C(O)(C(F)(F)F)C(F)(F)F)cc(C)c1NCCN(C)C`, with 112 to 115 °C.

The compound `CS(=O)(=O)c1ccc(-n2cc(C(F)(F)F)nc2-c2ccc(-c3cccs3)cc2)cc1` showed a melting point of 95 to 97 °C. Then `COc1ccc(C(=O)NCc2cccc3c2CN(C2CCC(=O)NC2=O)C3=O)cc1` (stereo not drawn), with 289 to 291 °C. Take `CC(C(=O)O)C1CCCCC1` (stereo not drawn): the melting point was 63 to 64 °C.

`CCCCc1oc2ccccc2c1-c1ncc(-c2ccc3cc(OCC(=O)OC)ccc3c2)o1` gave a melting point of 149 to 151 °C. In the case of `CCCc1nn(-c2ccc(C(F)(F)F)cn2)cc1CCCOc1c(F)cccc1CC(=O)O` it was 105 to 106 °C; in that of `Cc1ncn(Nc2cccc(Cl)c2)c1-c1cccc(Br)c1`, 164 °C; in that of `CCOC(=O)C1(F)C(=O)NC(=O)NC1N1CCCCC1` (stereo not drawn), 149 to 150 °C. The compound `NC(=O)Cn1c(=O)c2ncn3c2n(c1=O)CC=C3c1cccc(C(F)(F)F)c1` came in with a melting point of 283 to 285 °C. Regarding `O=c1c2ccc(Cl)cc2n(Cc2ccccc2)n2cccc12`, the melting point was 163 to 165 °C. Then `O=C(O)C(=O)NCCC(F)=C(F)F`, with 95 to 100 °C; and `CC(=O)NCC1CN(c2ccc(N3CCC(n4ccnn4)C(F)C3)c(F)c2)C(=O)O1` (stereo not drawn), with 158 to 160 °C; and `CCc1oc2ccccc2c1C(=O)c1cc(Br)c(OS(=O)(=O)c2ccc(C(=O)O)c(O)c2)c(Br)c1`, with 173 °C.

Consider `CC(C(=O)Oc1cc(=O)n(-c2cccc(C(F)(F)F)c2)c2ncccc12)c1ccccc1` (stereo not drawn), for which the melting point fell in the range of 42 to 57 °C.

`COc1ccccc1C(=O)Nc1ccc(F)cc1` gave a melting point of 79.6 to 80.2 °C. Take `O=C(Cc1ccccc1)Nc1ccc(NC(=O)OCc2ccccc2)c(O)c1`: the melting point amounted to 252 °C. Regarding `CC(C)c1nn(-c2ccc(C(F)(F)F)cn2)cc1CCCOc1c(C#N)cccc1CC(=O)O`, the melting point lay in the range of 144 to 145 °C. Then `CN(CCc1ccccc1)C(=O)Cn1cc(C=C(C(=O)O)C(C)(C)C)c2cc([N+](=O)[O-])ccc21`, with 140 to 143 °C; and `COc1ccc(C2(COc3cccc4cc(NS(=O)(=O)C(F)(F)F)ccc34)N=CNO2)cc1` (stereo not drawn), with 146 to 148 °C; and `Nc1cccc(CCCOCCCCCCNCC(O)c2cc(Cl)c(N)c(Cl)c2)n1` (stereo not drawn), with 62 to 65 °C. Take `O=C1Nc2ccc(F)c(F)c2C1c1ncnc2nn(C3CCCC3)cc12` (stereo not drawn): the melting point was in the range of 280 to 284 °C. The compound `COc1cc2c(cc1O)CCN(C(=O)c1ccccc1OC)C2` displayed a melting point of 176 to 177 °C. On to `Cn1c(=O)cnn(-c2ccc(Cl)c(C(=O)NCCc3ccccc3Cl)c2)c1=O`, for which the melting point is 157 to 161 °C. As for `CCCCCCCNC(=O)Nc1ccccc1C(=O)NCC1CCN(C(c2ccccc2)c2ccccc2)CC1`, the melting point was in the range of 146 to 148 °C. Then `COC(=O)CCC(=O)c1ccc(OC)c(CCl)c1`, with 78 to 80 °C; and `NC(=O)c1ccc(-c2ccc3nnn(Cc4cc5cccnc5cc4F)c3n2)cc1F`, with 206 to 208 °C; and `Cc1nn(C)c(C)c1-c1cncc(OC2SCC(O)C(O)C2O)c1` (stereo not drawn), with 174 °C. The compound `Oc1ccc(-c2nc3cc(Cl)c(O)cc3o2)cc1` gave a melting point of 254 to 256 °C. Then `O=C(CCc1ccncc1)Nc1cccc(-c2ccnc3c(C(=O)c4cccs4)cnn23)c1`, with 176 to 181 °C; and `CC1(C)CC(=O)c2c(nc(Cc3ccc(N)cc3)c3[nH]c4ccccc4c23)C1`, with 123 to 124 °C; and `Cc1cc(NC(=O)NC(=O)c2ccccc2N2CCOCC2)ccc1Oc1ncc(Br)cn1`, with 67 to 70 °C.

`CCn1cc(C(=O)O)c(=O)c2ccc(C=NNc3ccc(O)cc3)nc21`: the melting point is 300 °C. In the case of `NS(=O)(=O)c1ccc(-n2nc(C(F)(F)F)cc2-c2ccc(-c3cscn3)c(F)c2)cc1F` it was 196 to 198 °C; in that of `Clc1ncc(Br)n2nc(SCc3ccccc3)nc12`, 109 to 110 °C. Then `COc1ccc(C(=O)N(C(=O)c2ccc(OC)cc2)c2nc3ccc(N4CCOCC4)cc3c(NCc3ccccc3)c2C#N)cc1`, with 157 °C; and `CCOc1ccc([N+](=O)[O-])c(NC2CCOCC2)c1`, with 117 °C; and `NS(=O)(=O)c1ccc(-n2cnc3c(-c4ccc(C(F)(F)F)cc4F)ncnc32)cc1`, with 244 to 245 °C. The compound `CC(=O)N1CCc2cc(CC(C)N)cc(C#N)c21` (stereo not drawn) displayed a melting point of 94 to 96 °C.

In turn, `CCOC(=O)COc1nc(-c2ccccc2)nc(C)c1C` registered a melting point of 90 to 91 °C. Turning to `COc1cc2ncnc(N3CCN(C(=S)Nc4cc(O)nc(O)n4)CC3)c2cc1OC`, the melting point lay in the range of 283 to 285 °C. In the case of `Cn1c(=O)c(-c2c(Cl)cccc2Cl)cc2cnc(Nc3cccc(CO)c3)nc21` it was 215 to 217 °C. Then `Cc1cccc2cc3c(=O)n(Cc4ccccn4)cc(C(=O)NCCN(C)C)c3nc12`, with 183 to 184 °C; and `O=c1[nH]c(CCN2CCN(c3ccccc3)CC2)c(-c2ccc(F)cc2)[nH]1`, with 232 to 234 °C; and `CCCc1ccc2oc(Cc3ccc(O)cc3)c(C)c2c1O`, with 117 to 120 °C. The compound `CCOC(=O)NC(C)Cn1cc(-c2ccccc2)c2ccccc2c1=O` (stereo not drawn) had a melting point of 182 °C. In the case of `CCOC(=O)C1C(=O)N(C)c2ccc(Cl)cc2S1(=O)=O` (stereo not drawn) it was 86 to 91 °C; in that of `CCOC(Cl)(Cl)C1OC(=C(Cl)Cl)c2cc(C(=O)O)ccc2O1` (stereo not drawn), 121 to 122 °C. Take `CC(C)OP(=O)(OC(C)C)c1nc(N)nc(N)n1`: the melting point is over 400 °C. For `COc1ccc(N2CCN(c3c(C)c(C)c4c(c3C)CC(C)(CN3CCS(=O)(=O)CC3)O4)CC2)cc1` (stereo not drawn), the melting point was in the range of 145 to 164 °C. `Clc1cc(Nc2nccc(-c3ccc(N4CCNCC4)nc3)n2)cc(Cl)c1Cl` came in with a melting point of 208 to 211 °C.

As to `COC(=O)C(O)C(F)(F)F` (stereo not drawn), the melting point lay in the range of 50 to 53 °C.

The compound `CSc1c2n(c3ccccc13)CCC2N(O)C(N)=O` (stereo not drawn) showed a melting point of 178 °C. Compound `CCCOc1ccccc1-c1nc2nc(NCC)ncc2c(=O)[nH]1` gave a melting point of 181 to 182 °C. In the case of `O=C(O)Cc1cccc(C(=O)c2ccccc2)c1` it was 101 to 103 °C; in that of `CCc1cnc(C2=NC(C)(C(C)C)C(=O)N2)c(C(=O)NCCCCCC(=O)OC)c1` (stereo not drawn), 101 to 103 °C. Then `COc1cccc2c1OC(C(N)=O)(c1ccncc1CC(=O)OCc1ccccc1)C2` (stereo not drawn), with 165 to 166 °C. On to `CCOc1cccc(C2C(C(=O)OC)=C(C)NC(C)=C2C(=O)OC)c1OCC(=O)NCCO[N+](=O)[O-]`, for which the melting point was 159 to 160 °C. `CCCn1c(C)nn(-c2ccc([N+](=O)[O-])cc2)c1=O` displayed a melting point of 125 °C. Take `COc1ccc(CN2CC=C(/C=C/c3ccc(C#N)cc3)CC2)cc1`: the melting point lay in the range of 120 to 121 °C. In the case of `OCc1cn(Cc2ccc3cc(OCc4ccccc4)ccc3c2)cc1-c1ccccc1` it was 116 to 117 °C; in that of `CC(CCCl)C(=O)Nc1cc(C(C)(C)C)ns1` (stereo not drawn), 144 to 146 °C; in that of `Cc1nc2c([nH]1)C(=O)N1CCN=C1N2Cc1ccc(Cl)cc1`, 312 to 314 °C.

Turning to `COc1ccc(CCOCC(=O)O)cc1`, the melting point lay in the range of 82 to 84 °C. In the case of `COc1cc(/C=C/C(=O)C#CCO)cc(OC)c1OC`, the melting point lay within 113 to 115 °C.

The compound `CCCCOc1cc(C)c(NC(=O)C(C)Br)c(C)c1` (stereo not drawn) displayed a melting point of 132 to 134 °C. In the case of `O=C(O)CCC(=O)c1ccc(N2CCCCC2)cc1` it was 150 to 151 °C; in that of `O=C(CNC(=O)c1ccc(Cl)cc1)c1ccsc1`, 160 to 161 °C; in that of `CC(=O)NCc1ccc(CN2CCN(c3nccc(N(C)C)n3)CC2)cc1`, 152 to 155 °C.

Consider `CC1COc2ccccc2O1` (stereo not drawn), for which the melting point fell in the range of 86 to 87 °C.

The compound `O=C(O)CCc1cnoc1-c1ccc(-c2ccccc2)cc1` displayed a melting point of 94 to 95 °C. In the case of `CCCCCNC(=O)CC(c1ccc(OC)c(OC)c1)N1C(=O)c2ccccc2C1=O` (stereo not drawn) it was 140 to 142 °C; in that of `Cc1nc(-c2cn(Cc3ccccc3)nn2)sc1C(=O)NCc1cccnc1`, 212 to 213 °C; in that of `O=C(NC1C(=O)N(CC2C3CC4CC(C3)CC2C4)c2ccccc2N(c2ccccc2)C1=O)Oc1ccccc1` (stereo not drawn), 167 to 168 °C. In the case of `O=CN1CCc2ccccc2CC1`, the melting point was in the range of 65 to 66 °C.

`O=C(O)c1cccc([N+](=O)[O-])c1Nc1ccccc1Cl` showed a melting point of 213 to 215 °C. In the case of `Cc1ncc(C(=O)O)nc1C` it was 187 °C; in that of `Cn1c(Oc2ccc(-n3c4ncccc4n4ccnc34)cc2)nc2ccccc21`, 232 to 234 °C; in that of `CCOC(=O)C1=C(C)NC(C(OCC)OCC)=C(C(=O)OCC)C1c1ccccc1Cl` (stereo not drawn), 75 to 77 °C. Then `CSc1cc(C(F)(F)F)nn1-c1ccc(NC(=O)c2ccncc2F)cc1`, with 142 to 143 °C. For the compound `O=C(CNC1CCCCC1)Nc1ccc(C(=O)N2CCCCc3ccccc32)cc1`, the melting point fell in the range of 139 to 142 °C. As for `CN1C(=O)N(c2cc(Cl)cc(Cl)c2)C(=O)[C@]12CN(Cc1ccccc1)C[C@H]2c1ccc(-c2cncnc2)cc1` (relative stereo), the melting point is 228 °C. On to `O=C1NC(Cc2c[nH]c3ccccc23)C(=O)N1CCCN1CCOCC1` (stereo not drawn), for which the melting point fell in the range of 158 to 160 °C.

`COC(=O)Cc1sc(F)c(N=c2sc(=O)n3n2CCCC3)c1Cl` came in with a melting point of 99 to 101 °C. Then `Cc1nc(=O)[nH]c2cc3c(cc12)OCO3`, with 310 to 312 °C.

For orientation: melting point means the temperature, or range, at which the solid turns liquid.

The values above are taken from a melting point compilation (Tetko et al.; mined from patent text by program, amines drawn as free bases though some values may be those of a salt).
